These results are taken from patent publication US20050101668A1, “Aminotetralin derivatives as a medicament for the treatment and prevention of myocardial ischemic conditions” (Chiesi Farmaceutici S.p.A., priority 2003, published 2005).

Test [1] concerns isolated perfused rat heart. The experiment in a line: Isolated perfused rat heart, low flow ischemia/reperfusion: heart mechanics (LVEDP, LVDevP, CPP). As to conditions: antagonist alone 1 μM, pre-ischemic period, mean ± S.E.M. As for the experimental part:
(§1) In brief, the rats were anaesthetized with sodium pentobarbital (60 mg/kg) given by intraperitoneal injection. The chest were opened, and the heart was rapidly excised, and placed in cold (4° C.) heparinized (20 units/ml) Krebs Henseleit solution. […] Coronary perfusion pressure (CPP), left ventricular pressure (LVP) and left ventricular developed pressure (LVDevP; peak left ventricular systolic pressure minus LVEDP) were measured.
(§2) After equilibration of 15 min, hearts were paced at 300 beats/min with an electrical stimulator via two silver electrodes attached to the right atrium and an additional 30 min of perfusion was carried out (pre-ischemic period). Ischemia was induced by reducing the flow rate from 15 ml/min to 1 ml/min for 20 min (ischemic period). A normal flow rate (15 ml/min) was then restored and the perfusion was continued for another 30 min (reperfusion period).

The test system of test [2] is isolated perfused rat heart. The experiment in a line: Creatine kinase (CK) and lactate dehydrogenase (LDH) activities in heart perfusates. The conditions noted are these: antagonist alone 1 μM; mU/min/g w.w. vs time 20 to 50 min; mean ± S.E.M. Here is the method: as §1, §2
The perfusate, eluted from the heart during pre-ischemic and reperfusion periods, was collected in an ice-cooled beaker as 2.5-min samples collection. Each sample was used for the determination of CK and LDH activities by means of a spectrophotometrical method.

Take `COC(=O)[C@H]1[C@H]2C[C@H]3c4[nH]c5ccccc5c4CCN3C[C@H]2CC[C@@H]1O` [Rauwolscine, rauwolscine]: the “AUC related to LVEDP” value in test [1] (mm Hg vs time 0 to 50 min) came out at 505 ± 64. In addition, in test [1] (mm Hg vs time 20 to 50 min), the “AUC related to CPP” value is on record as 1680 ± 98 and the “AUC related to LVDevP” value stood at 912 ± 64. For the same molecule, in test [2], the “AUC related to CK” value was 5584 ± 297 and the “AUC related to LDH” value came to 12988 ± 522.
